Reference: ChEMBL document CHEMBL5036349, “Development of potent dual PDK1/AurA kinase inhibitors for cancer therapy: Lead-optimization, structural insights, and ADME-Tox profile” (Eur J Med Chem, 2021)
The source made the active and inactive calls. The rule behind the calls is not given here.

Assays:
[1] = Cytotoxicity against hTERT cells at 10 uM measured after 24 to 48 hrs by Cell-titer glo assay relative to control; format: cell-based; details: human, time 24-48 hrs
[2] = target: 3',5'-cyclic-AMP phosphodiesterase 4C (Homo sapiens) (UniProt Q08493); experiment: Inhibition of PDE4C1 (unknown origin) at 10 uM incubated for 60 mins followed by addition of binding agent and measured after 20 mins by Fluorescence Polarization assay relative to control; details: time 80.0 min
Sequence of 3',5'-cyclic-AMP phosphodiesterase 4C (Homo sapiens) (Q08493 whole entry): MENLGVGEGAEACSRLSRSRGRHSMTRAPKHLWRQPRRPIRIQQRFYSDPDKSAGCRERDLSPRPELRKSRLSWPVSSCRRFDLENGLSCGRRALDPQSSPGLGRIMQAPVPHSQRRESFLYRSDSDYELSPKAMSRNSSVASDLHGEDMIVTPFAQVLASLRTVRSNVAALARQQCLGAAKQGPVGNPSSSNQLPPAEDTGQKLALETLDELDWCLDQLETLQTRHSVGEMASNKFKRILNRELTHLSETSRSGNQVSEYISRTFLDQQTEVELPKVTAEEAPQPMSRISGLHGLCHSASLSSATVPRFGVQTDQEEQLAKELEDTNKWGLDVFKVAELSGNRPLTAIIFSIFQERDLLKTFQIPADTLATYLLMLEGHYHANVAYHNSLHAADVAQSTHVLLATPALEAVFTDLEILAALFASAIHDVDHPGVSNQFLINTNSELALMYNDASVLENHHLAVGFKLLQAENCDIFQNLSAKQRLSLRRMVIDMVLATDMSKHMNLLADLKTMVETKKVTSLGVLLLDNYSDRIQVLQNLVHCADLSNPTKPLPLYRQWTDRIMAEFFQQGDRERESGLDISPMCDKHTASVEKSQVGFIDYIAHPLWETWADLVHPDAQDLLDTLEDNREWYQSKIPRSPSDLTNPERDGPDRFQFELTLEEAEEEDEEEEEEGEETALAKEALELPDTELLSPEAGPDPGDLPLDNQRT

MCF7 = experiment: Cytotoxicity against human MCF7 cells measured after 72 hrs by MTT assay; format: functional, cell-based; details: MCF7, 72 h
CAKI-1 = experiment: Cytotoxicity against human CAKI-1 cells measured after 72 hrs by MTT assay; format: functional, cell-based; details: CAKI-1, 72 h
786-0 = experiment: Cytotoxicity against human 786-0 cells measured after 72 hrs by MTT assay; format: functional, cell-based; details: 786-0, 72 h
IGROV-1 = experiment: Cytotoxicity against human IGROV-1 cells measured after 72 hrs by MTT assay; format: functional, cell-based; details: IGROV-1, 72 h
PC-3 = experiment: Cytotoxicity against human PC-3 cells measured after 72 hrs by MTT assay; format: functional, cell-based; details: PC-3, 72 h
HCT-116 [3] = experiment: Cytotoxicity against human HCT-116 cells measured after 72 hrs by MTT assay; format: functional, cell-based; details: HCT-116, 72 h
NCI-H69 = experiment: Cytotoxicity against human NCI-H69 cells measured after 72 hrs by MTT assay; format: functional, cell-based; details: NCI-H69, 72 h
NCI-H82 = experiment: Cytotoxicity against human NCI-H82 cells measured after 72 hrs by MTT assay; format: functional, cell-based; details: NCI-H82, 72 h
Rec1 [4] = experiment: Cytotoxicity against human REC1 cells measured after 72 hrs by MTT assay; format: functional, cell-based; details: Rec1, 72 h
TC-32 = experiment: Cytotoxicity against human TC-32 cells measured after 72 hrs by MTT assay; format: functional, cell-based; details: TC-32, 72 h
SK-N-MC [5] = experiment: Cytotoxicity against human SK-N-MC cells measured after 72 hrs by MTT assay; format: functional, cell-based
[6] = Cytotoxicity against human 6647 cells measured after 72 hrs by MTT assay; format: functional, cell-based; details: Homo sapiens, 6647, 72 h
[7] = Cytotoxicity against human TC71 cells measured after 72 hrs by MTT assay; format: functional, cell-based; details: TC-71, 72 h
A673 = experiment: Cytotoxicity against human A673 cells measured after 72 hrs by MTT assay; format: functional, cell-based; details: A673, 72 h
Rec1 [8] = experiment: Cytotoxicity against human REC1 cells at 30 uM assessed as cell proliferation rate measured after 72 hrs by MTT assay relative to control; format: functional
SK-N-MC [9] = experiment: Cytotoxicity against human SK-N-MC cells at 30 uM assessed as cell proliferation rate measured after 72 hrs by MTT assay relative to control; format: functional
[10] = Cytotoxicity against human 6647 cells at 30 uM assessed as cell proliferation rate measured after 72 hrs by MTT assay relative to control; format: functional
HCT-116 [11] = experiment: Anticlonogenic activity against human HCT-116 cells assessed as reduction of cell survival at 0.5 to 20 uM measured after 10 days by SRB staining clonogenic survival assay; format: functional, cell-based; details: dose 0.5-20 µM, time 10.0 day
TC-71 = experiment: Anticlonogenic activity against human TC71 cells assessed as reduction of cell survival at 0.5 to 20 uM measured after 10 days by SRB staining clonogenic survival assay; format: functional, cell-based; details: dose 0.5-20 µM, time 10.0 day
[12] = AUC (infinity) in CD-1 mouse at 10 mg/kg iv measured by UPLC-MS/MS method; format: ADME, organism-based; parameters: time infinity, route intravenous, dose 10 mg/kg; details: in vivo
[13] = Clearance in CD-1 mouse at 10 mg/kg iv measured by UPLC-MS/MS method; format: ADME, organism-based; details: in vivo
[14] = Half life in CD-1 mouse at 10 mg/kg iv measured by UPLC-MS/MS method; format: ADME, organism-based; details: in vivo
[15] = Volume of distribution in CD-1 mouse at 10 mg/kg iv measured by UPLC-MS/MS method; format: ADME, organism-based; details: in vivo
[16] = Cmax in CD-1 mouse at 10 mg/kg iv measured by UPLC-MS/MS method; format: ADME, organism-based; parameters: route intravenous, dose 10 mg/kg; details: in vivo
[17] = Drug uptake in human […] cell at 1.5 uM measured upto 120 min by UPLC-MS/MS analysis; format: ADME, tissue-based; details: 2 h
[18] = target: Aurora kinase A (Homo sapiens) (UniProt O14965); experiment: Modulation in AURA protein in human SK-N-MC cell at 1 uM measured after 30 min by Western blot analysis; format: tissue-based
Sequence of Aurora kinase A (Homo sapiens) (O14965 whole entry): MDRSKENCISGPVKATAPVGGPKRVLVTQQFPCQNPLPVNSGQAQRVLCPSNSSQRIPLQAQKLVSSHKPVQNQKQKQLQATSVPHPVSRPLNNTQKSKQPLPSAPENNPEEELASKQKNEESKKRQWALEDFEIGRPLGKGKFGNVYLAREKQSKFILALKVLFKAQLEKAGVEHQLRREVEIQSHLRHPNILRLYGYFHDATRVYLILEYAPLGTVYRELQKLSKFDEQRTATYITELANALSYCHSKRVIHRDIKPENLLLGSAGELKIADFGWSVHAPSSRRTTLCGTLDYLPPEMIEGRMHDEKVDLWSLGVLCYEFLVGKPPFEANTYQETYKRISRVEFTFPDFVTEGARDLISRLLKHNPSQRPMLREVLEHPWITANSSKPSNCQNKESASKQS

SK-N-MC [19] = experiment: Inhibition of MAPK signaling in human SK-N-MC cell assessed as decrease in phosphorylated ERK 1/2 at 1 uM measured after 30 min by Western blot analysis; format: tissue-based
SK-N-MC [20] = experiment: Upregulation of C-Myc protein expression level in human SK-N-MC cell at 1 uM incubated for 2 hrs by western blot analysis; format: functional, tissue-based
SK-N-MC [21] = experiment: Upregulation of p21 protein expression level in human SK-N-MC cell at 1 uM incubated for 2 hrs by western blot analysis; format: functional, tissue-based
SK-N-MC [22] = experiment: Upregulation of RB1 protein expression level in human SK-N-MC cell at 1 uM incubated for 2 hrs by western blot analysis; format: functional, tissue-based
SK-N-MC [23] = experiment: Upregulation of Cdc2 protein expression level in human SK-N-MC cell at 1 uM incubated for 2 hrs by western blot analysis; format: functional, tissue-based
[24] = target: T1, {'v': 'CYP1A2', 'o': 'p', 'q': 'Inhibition of CYP1A2 (unknown origin)'} (Homo sapiens, UniProt P05177); experiment: Inhibition of CYP1A2 (unknown origin) at 10 uM pre-incubated for 30 min followed by addition of NADPH and measured after 30 min by Luminescence based plate reader method relative to control; format: ADME; details: time 60 min
T1 sequence (P05177 whole entry): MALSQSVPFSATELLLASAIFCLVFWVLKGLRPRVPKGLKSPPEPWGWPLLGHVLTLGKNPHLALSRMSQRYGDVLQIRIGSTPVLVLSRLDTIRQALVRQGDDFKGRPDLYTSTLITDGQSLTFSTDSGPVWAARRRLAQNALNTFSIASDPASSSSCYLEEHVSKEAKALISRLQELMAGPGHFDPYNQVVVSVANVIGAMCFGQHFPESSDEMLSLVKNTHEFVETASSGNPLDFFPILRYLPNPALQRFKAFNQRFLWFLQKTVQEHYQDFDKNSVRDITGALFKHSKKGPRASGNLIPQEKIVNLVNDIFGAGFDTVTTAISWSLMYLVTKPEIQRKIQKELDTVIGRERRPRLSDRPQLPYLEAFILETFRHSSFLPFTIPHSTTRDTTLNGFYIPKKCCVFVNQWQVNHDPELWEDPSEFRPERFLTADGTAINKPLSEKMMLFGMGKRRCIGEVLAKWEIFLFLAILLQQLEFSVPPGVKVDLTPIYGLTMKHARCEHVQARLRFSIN

[25] = target: {'v': 'CYP2C9', 'o': 'p', 'q': 'Inhibition of CYP2C9 (unknown origin)'} (Homo sapiens, UniProt P11712); experiment: Inhibition of CYP2C9 (unknown origin) at 10 uM pre-incubated for 30 min followed by addition of NADPH and measured after 30 min by Luminescence based plate reader method relative to control; format: ADME; details: time 60 min
Sequence of {'v': 'CYP2C9', 'o': 'p', 'q': 'Inhibition of CYP2C9 (unknown origin)'} (P11712 whole entry): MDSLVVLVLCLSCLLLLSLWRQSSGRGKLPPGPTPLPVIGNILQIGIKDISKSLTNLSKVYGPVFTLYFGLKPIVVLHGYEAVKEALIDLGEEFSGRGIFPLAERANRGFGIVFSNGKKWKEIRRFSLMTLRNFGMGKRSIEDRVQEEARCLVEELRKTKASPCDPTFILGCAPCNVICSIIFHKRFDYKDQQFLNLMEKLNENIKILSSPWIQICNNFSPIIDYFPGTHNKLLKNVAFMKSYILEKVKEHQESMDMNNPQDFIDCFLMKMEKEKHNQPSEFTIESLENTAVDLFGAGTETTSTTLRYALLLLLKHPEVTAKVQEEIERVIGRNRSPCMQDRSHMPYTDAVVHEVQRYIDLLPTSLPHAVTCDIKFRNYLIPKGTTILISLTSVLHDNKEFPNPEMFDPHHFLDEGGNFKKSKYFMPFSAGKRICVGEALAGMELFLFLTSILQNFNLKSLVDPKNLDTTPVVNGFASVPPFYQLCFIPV

| Compound | Activity [1] [%] | inhibition [2] [%] | IC50 (MCF7) [µM] | IC50 (CAKI-1) [µM] | IC50 (786-0) [µM] | IC50 (IGROV-1) [µM] | IC50 (PC-3) [µM] | IC50 (HCT-116 [3]) [µM] | IC50 (NCI-H69) [µM] | IC50 (NCI-H82) [µM] | IC50 (TC-32) [µM] | IC50 (SK-N-MC [5]) [µM] | IC50 [6] [µM] | IC50 [7] [µM] | inhibition at 0.5 h, 10 µM [24] [%] | inhibition at 0.5 h, 10 µM [25] [%] | further results |
| --- | --- | --- | --- | --- | --- | --- | --- | --- | --- | --- | --- | --- | --- | --- | --- | --- | --- |
| O=C1Nc2ccc(NC(=O)[C@H](NC(=O)c3cccn(Cc4ccc(F)c(F)c4)c3=O)c3ccccc3)cc2/C1=C/c1cnc[nH]1 (stereo in doubt) | < 25 | < 30 | > 30 | > 30 | > 30 | > 30 | > 30 | 3.6 | > 30 | > 30 | > 30 | 3 | 4.8 | 16.9 |  |  | IC50 (Rec1 [4]): 11 µM; IC50 (A673): > 30 µM; Emax at 30 µM (Rec1 [8]): 55%; Emax at 30 µM (SK-N-MC [9]): 75%; Emax at 30 µM [10]: 84%; Activity (HCT-116 [11]): Dose-Dependent Effect; Activity (TC-71): Dose-Dependent Effect; AUC [12]: 5720 ng·h/mL; CL [13]: 75 mL/h; t1/2 [14]: 1.5 h; Vd [15]: 0.37 L; Cmax [16]: 1300 ng/mL; Drug uptake [17]: 800 ng/mL; Activity [18]: inactive; inhibition (SK-N-MC [19]): Active; Activity (SK-N-MC [20]): Active; Activity (SK-N-MC [21]): Active; Activity (SK-N-MC [22]): Active; Activity (SK-N-MC [23]): Active |
| O=C(CCNC(=O)c1cccn(Cc2ccc(F)c(F)c2)c1=O)Nc1ccc2c(c1)/C(=C/c1cnc[nH]1)C(=O)N2 | < 25 | < 30 |  |  |  |  |  |  |  |  |  |  |  |  | > 90 | > 90 |  |
| Cc1c(Br)cc(C(=O)N[C@@H](C(=O)Nc2ccc3c(c2)/C(=C/c2cnc[nH]2)C(=O)N3)c2ccccc2)c(=O)n1Cc1ccc(F)c(F)c1 | < 25 | < 30 | > 30 | > 30 | > 30 | > 30 | > 30 | > 30 | > 30 | > 30 | > 30 | > 30 | > 30 | > 30 | < 45 | < 45 |  |
| Cc1ccc(C(=O)NCC(=O)Nc2ccc3c(c2)/C(=C/c2cnc[nH]2)C(=O)N3)c(=O)n1Cc1ccc(F)c(F)c1 | < 25 | < 30 |  |  |  |  |  |  |  |  |  |  |  |  | > 90 | > 90 |  |
